Laboratory results: PMC10458596, “Synthesis, In Silico Logp Study, and In Vitro Analgesic Activity of Analogs of Tetrapeptide FELL” (Pharmaceuticals, 2023)
Residues, ends and D or L forms follow the SMILES beside them.

Tests used:
male Wistar rats [1] = assay: Paw-pressure test (Randall-Selitto test), PPT; format: in vivo, rat; details: for Analgesic activity (PPT) over time: 0.25 mg/kg i.p. in saline, measured every 10 min from 10th to 50th min, n = 8-10 per group, PPT in AU, mean ± S.E.M. (Figure 2)
Description: (§1) The experiments were carried out on male Wistar rats (180–200 g) kept under normal conditions at ambient room temperature (22 °C). The animals were divided into five experimental groups, each including 8–10 animals, and a control group (n = 10). All experimental procedures were carried out between 10:00 a.m. and 1:00 p.m. after having been approved by the Research Ethics Commission of the Medical University—Sofia.
(§2) The control group received 0.2 mL of saline intraperitoneally injected (i.p.), while the animals from each one of the experimental groups received 0.2 mL (0.25 mg/kg, i.p.) of one of the five newly synthesized analogs dissolved in saline.
(§3) Changes in the mechanical nociceptive thresholds (PPT) of experimental animals were measured by an analgesimeter. Pressure was applied to the hind paw, and the value (g) required to elicit a nociceptive response (i.e., a squeak or struggle) was taken as the mechanical nociceptive threshold. A cut-off value of 500 g was used to prevent damage to the paw.
(§4) Nociception was evaluated every 10 min from the 10th minute after the newly synthesized analog was administered until the 50th minute.
The results were statistically assessed by one-way analysis of variance followed by a Newman-Keuls post-hoc comparison test. Values are represented as mean ± S.E.M. Values of p < 0.05 were considered to indicate statistical significance.

male Wistar rats [2] = assay: Paw-pressure test after Naloxone or AM251 pretreatment; format: in vivo, rat; details: 10th to 50th min (Figure 3); for Analgesia (PPT) after AM251 pretreatment: peptide i.p. after AM251 (CB1R antagonist) pretreatment; for Analgesia (PPT) after Naloxone pretreatment: peptide i.p. after Naloxone (MOR antagonist) pretreatment
Description: as §1, §2, §3, §4
In order to estimate which type of receptor participates in the analgesic effects of the newly synthesized substances, pretreatments have been made with Naloxone—an antagonist with a high binding affinity for the MORs, clinically used to prevent fatal overdose consequences—and AM251—a CB1Rs’ antagonist.

[3] = tested on: white blood cells (WBC), especially neutrophils and macrophages, in bronchoalveolar fluid (BALF); parameters: method as in PMID 25632019; details: cited from earlier work

Compound	Analgesic activity (PPT) over time (male Wistar rats [1])	Reduction of total number of white blood cells and their accumulation in BALF in the lungs [3]	also measured
CC(C)C[C@H](NC(=O)[C@H](CC(C)C)NC(=O)[C@H](CCC(=O)O)NC(=O)[C@@H](N)Cc1ccccc1)C(N)=O [BB1, H-Phe-Glu-Leu-Leu-NH2] (H-FELL-NH2)	gradually increasing analgesic activity over time		Analgesic activity (PPT) vs parent compound BB11 at the end of the reported period (male Wistar rats [1]; 0.25 mg/kg i.p., 50th min, F = 5.38217, p = 0.042776): exceeded that of the parent compound BB11; Analgesia (PPT) after AM251 pretreatment (male Wistar rats [2]): completely abolished the analgesia; Analgesia (PPT) after Naloxone pretreatment (male Wistar rats [2]): completely abolished the analgesia
TDIFELL		54%	
TDIFELLK		57%	
H-Phe-Glu-Ile-Ile-NH2 [BB4, FELL analog with Ile at positions 3 and 4, C-terminal amide]	fluctuating analgesia that did not reach the values of the parent compound		
CCCC[C@H](NC(=O)[C@H](CCCC)NC(=O)[C@H](CCC(=O)O)NC(=O)[C@@H](N)Cc1ccccc1)C(N)=O [BB2, H-Phe-Glu-Nle-Nle-NH2] (HELM PEPTIDE1{F.E.[Nle].[Nle].[am]}$$$$V2.0)	fluctuating analgesia that did not reach the values of the parent compound		
CC(C)[C@H](NC(=O)[C@@H](NC(=O)[C@H](CCC(=O)O)NC(=O)[C@@H](N)Cc1ccccc1)C(C)C)C(N)=O [BB3, H-Phe-Glu-Val-Val-NH2] (H-FEVV-NH2)	highest but short-lasting analgesic activity		Analgesic activity (PPT) vs BB11 at the 10th minute (male Wistar rats [1]; 0.25 mg/kg i.p., 10th min, F = 92.35602, p < 0.00001): exceeded that of BB11
CC(C)C[C@H](NC(=O)[C@H](CC(C)C)NC(=O)[C@H](CCC(=O)O)NC(=O)[C@@H](N)Cc1ccccc1)C(=O)O [BB11, H-Phe-Glu-Leu-Leu-OH, reference compound] (H-FELL-OH)	constantly increased PPT for the total time of the evaluation	51%	Analgesia (PPT) after AM251 pretreatment (male Wistar rats [2]): completely abolished the analgesia; Analgesia (PPT) after Naloxone pretreatment (male Wistar rats [2]): completely abolished the analgesia
